For the test, the target named is T1, Human M4 (Homo sapiens, UniProt P08173).
T1 construct: expressed in transfected cells; host or cells: CHO-K1 (ATCC), co-transfected with chimeric G protein Gqi5
T1 sequence (P08173 1-479): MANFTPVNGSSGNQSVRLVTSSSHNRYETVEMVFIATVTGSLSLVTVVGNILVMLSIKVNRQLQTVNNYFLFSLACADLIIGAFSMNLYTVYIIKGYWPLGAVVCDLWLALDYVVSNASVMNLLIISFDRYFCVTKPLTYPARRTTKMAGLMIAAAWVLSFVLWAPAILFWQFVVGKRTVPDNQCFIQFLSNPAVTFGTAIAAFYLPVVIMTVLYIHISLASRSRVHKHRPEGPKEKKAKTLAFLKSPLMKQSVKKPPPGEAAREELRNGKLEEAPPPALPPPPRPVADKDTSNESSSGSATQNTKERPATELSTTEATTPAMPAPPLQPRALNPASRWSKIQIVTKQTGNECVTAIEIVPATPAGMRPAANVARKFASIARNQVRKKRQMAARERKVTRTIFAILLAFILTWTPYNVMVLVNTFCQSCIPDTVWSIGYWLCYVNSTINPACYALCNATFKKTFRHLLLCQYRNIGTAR
Kind of test: mAChR M4 cell-based functional assay (calcium flux, antagonism of EC80 acetylcholine response). The conditions noted are these: for IC50: concentration-dependent decrease of the response elicited by an EC80 concentration of acetylcholine. The method in brief: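 CHO-K1 cells stably expressing human M4 with chimeric Gqi5, Fluo-4 loaded; calcium flux read on FDSS. Compound (10-point, 1:3 series) added first, then EC20 acetylcholine at 143 s and EC80 at 268 s. IC50 from concentration-dependent decrease of EC80 response, four-parameter logistic fit.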

Where [1] appears, read: M4/Gqi5/CHO-K1 cells, % ACh maximum at 30 μM, read-out: Human M4 Emin (% ACh maximum at 30 μM).

By IC50 is commonly meant the concentration that gives 50% inhibition.

Like-named read-outs stand apart in the source and are kept apart here.

Consider `CC(=O)Nc1ccc(-c2ccc(N[C@H]3C[C@@H]4CN(CC5(C)COC5)C[C@@H]4C3)nn2)cc1` [Compound A6, N-(4-(6-(((3aR,5s,6aS)-2-((3-methyloxetan-3-yl)methyl)octahydrocyclopenta[c]pyrrol-5-yl)amino)pyridazin-3-yl)phenyl)acetamide], for which, under setting [1], the remaining activity at 30 µM turned out to be 16%. Moreover, the IC50 (M4/Gqi5/CHO-K1 cells) was 4600 nM.

With `O=C(NC1CC1)c1cccc(-c2ccc(N[C@H]3C[C@@H]4CN(CC5CCOCC5)C[C@@H]4C3)nn2)c1` [Compound A28, N-cyclopropyl-3-(6-(((3aR,5s,6aS)-2-((tetrahydro-2H-pyran-4-yl)methyl)octahydrocyclopenta[c]pyrrol-5-yl)amino)pyridazin-3-yl)benzamide], the remaining activity at 30 µM under setting [1] was 3%. For the same molecule, under “M4/Gqi5/CHO-K1 cells”, the IC50 is 25 nM.

As to `[2H]C([2H])(C1CCOCC1)N1C[C@H]2C[C@H](Nc3ccc(-c4cc(F)c(C(N)=O)c(F)c4)nn3)C[C@H]2C1` [Compound A68, 2,6-difluoro-4-(6-(((3aR,5s,6aS)-2-((tetrahydro-2H-pyran-4-yl)methyl-d2)octahydrocyclopenta[c]pyrrol-5-yl)amino)pyridazin-3-yl)benzamide], the remaining activity at 30 µM under setting [1] came to 4%. Further, the IC50 (M4/Gqi5/CHO-K1 cells) was determined as 11 nM.

As for `[2H]C([2H])(C1CCOCC1)N1C[C@H]2C[C@H](Nc3ccc(-c4cccc(NC(C)=O)c4)nn3)C[C@H]2C1` [Compound A31, N-(3-(6-(((3aR,5s,6aS)-2-((tetrahydro-2H-pyran-4-yl)methyl-d2)octahydrocyclopenta[c]pyrrol-5-yl)amino)pyridazin-3-yl)phenyl)acetamide], the remaining activity at 30 µM under setting [1] was determined as 3%. In addition, the IC50 (M4/Gqi5/CHO-K1 cells) is 11 nM.

Take `O=C(Nc1cc(F)c(F)c(-c2ccc(N[C@H]3C[C@@H]4CN(CC5CCOCC5)C[C@@H]4C3)nn2)c1)C1(O)CCC1` [Compound A13, N-(3,4-difluoro-5-(6-(((3aR,5s,6aS)-2-((tetrahydro-2H-pyran-4-yl)methyl)octahydrocyclopenta[c]pyrrol-5-yl)amino)pyridazin-3-yl)phenyl)-1-hydroxycyclobutane-1-carboxamide]: under setting [1], the remaining activity at 30 µM was determined as 4%. Under “M4/Gqi5/CHO-K1 cells”, the 50% inhibitory concentration (IC50) was 64 nM.

As to `[2H]C([2H])(C1CCOCC1)N1C[C@H]2C[C@H](Nc3ccc(-c4cccc(C(=O)NC)c4)nn3)C[C@H]2C1` (single isomer, unassigned) [Compound A42], under “CHO-K1, read-out: Human M4 Emin (% ACh maximum at 30 μM)”, the remaining activity at 30 µM was determined as 14%. The IC50 (M4/Gqi5/CHO-K1 cells) came to 400 nM.

Regarding `CCNC(=O)c1cccc(-c2ccc(N[C@H]3C[C@@H]4CN(CC5CCOCC5)C[C@@H]4C3)nn2)c1` [Compound A43, N-ethyl-3-(6-(((3aR,5s,6aS)-2-((tetrahydro-2H-pyran-4-yl)methyl)octahydrocyclopenta[c]pyrrol-5-yl)amino)pyridazin-3-yl)benzamide], the remaining activity at 30 µM under setting [1] was 4%. Moreover, where the note is “M4/Gqi5/CHO-K1 cells”, the half-inhibitory concentration (IC50) was found to be 13 nM.

On to `[2H]C([2H])(C1CCOCC1)N1C[C@H]2C[C@H](Nc3ccc(-c4ccc(NC(C)=O)cc4)nn3)C[C@H]2C1` (single isomer, unassigned) [Compound B1], for which, where the note is “M4/Gqi5/CHO-K1 cells, % ACh maximum at 30 μM”, the “Human M4 Emin (% ACh maximum at 30 μM)” value was 4%. For the same molecule, the half-maximal inhibitory concentration (IC50) (M4/Gqi5/CHO-K1 cells) amounted to 0.4 nM.

In the case of `[2H]C([2H])([2H])C(=O)Nc1cccc(-c2ccc(N[C@H]3C[C@@H]4CN(CC5CCOCC5)C[C@@H]4C3)nn2)c1` [Compound A61, N-(3-(6-(((3aR,5s,6aS)-2-((tetrahydro-2H-pyran-4-yl)methyl)octahydrocyclopenta[c]pyrrol-5-yl)amino)pyridazin-3-yl)phenyl)acetamide-2,2,2-d3], the remaining activity at 30 µM under setting [1] was found to be 3%. In addition, the IC50 (M4/Gqi5/CHO-K1 cells) came to 12 nM.

For the molecule `CNC(=O)c1ccc(-c2ccc(N[C@H]3C[C@@H]4CN(CC5CCOCC5)C[C@@H]4C3)nn2)cc1` [Compound A63, N-methyl-4-(6-(((3aR,5s,6aS)-2-((tetrahydro-2H-pyran-4-yl)methyl)octahydrocyclopenta[c]pyrrol-5-yl)amino)pyridazin-3-yl)benzamide], the remaining activity at 30 µM under setting [1] is 3%. Also, for the setting “M4/Gqi5/CHO-K1 cells”, the IC50 turned out to be 1.2 nM.

Regarding `[2H]C([2H])(C1CCOCC1)N1C[C@H]2C[C@H](Nc3ccc(-c4ccc(C(=O)NC5CC5)cc4)nn3)C[C@H]2C1` [Compound A34, N-cyclopropyl-4-(6-(((3aR,5s,6aS)-2-((tetrahydro-2H-pyran-4-yl)methyl-d2)octahydrocyclopenta[c]pyrrol-5-yl)amino)pyridazin-3-yl)benzamide], the remaining activity at 30 µM under setting [1] stood at 4%. Besides, for the setting “M4/Gqi5/CHO-K1 cells”, the IC50 is 1.1 nM.

For the molecule `[2H]C([2H])(C1CC(C)(C)OC(C)(C)C1)N1C[C@H]2C[C@H](Nc3ccc(-c4cccc(C(=O)NC)c4)nn3)C[C@H]2C1` [Compound A76, N-methyl-3-(6-(((3aR,5s,6aS)-2-((2,2,6,6-tetramethyltetrahydro-2H-pyran-4-yl)methyl-d2)octahydrocyclopenta[c]pyrrol-5-yl)amino)pyridazin-3-yl)benzamide], under setting [1], the remaining activity at 30 µM was 4%. For the same molecule, the IC50 (M4/Gqi5/CHO-K1 cells) turned out to be 99 nM.

In the case of `CC(=O)Nc1cccc(-c2ccc(N[C@H]3C[C@@H]4CN(CC5CCOCC5)C[C@@H]4C3)nn2)c1` [Compound A29, N-(3-(6-(((3aR,5s,6aS)-2-((tetrahydro-2H-pyran-4-yl)methyl)octahydrocyclopenta[c]pyrrol-5-yl)amino)pyridazin-3-yl)phenyl)acetamide], the remaining activity at 30 µM under setting [1] was 3%. Further, the IC50 (M4/Gqi5/CHO-K1 cells) is 34 nM.

As to `[2H]C([2H])(C1CCOCC1)N1C[C@H]2C[C@H](Nc3ccc(-c4ccc(NC(=O)CC)cc4)nn3)C[C@H]2C1` [Compound A40, N-(4-(6-(((3aR,5s,6aS)-2-((tetrahydro-2H-pyran-4-yl)methyl-d2)octahydrocyclopenta[c]pyrrol-5-yl)amino)pyridazin-3-yl)phenyl)propionamide], the remaining activity at 30 µM under setting [1] is 3%. Moreover, where the note is “M4/Gqi5/CHO-K1 cells”, the IC50 turned out to be 2.5 nM.

Take `[2H]C([2H])([C@H]1CCCOC1)N1C[C@H]2C[C@H](Nc3ccc(-c4cc(F)cc(C(=O)NC)c4)nn3)C[C@H]2C1` [Compound A84, 3-fluoro-N-methyl-5-(6-(((3aR,5s,6aS)-2-(((R)-tetrahydro-2H-pyran-3-yl)methyl-d2)octahydrocyclopenta[c]pyrrol-5-yl)amino)pyridazin-3-yl)benzamide]: the remaining activity at 30 µM under setting [1] worked out at 6%. Besides, the IC50 (M4/Gqi5/CHO-K1 cells) stood at 340 nM.

In the case of `CC(=O)Nc1ccc(-c2ccc(N[C@H]3C[C@@H]4CN(Cc5ccc6c(c5)OCO6)C[C@@H]4C3)nn2)cc1` [Compound A4, N-(4-(6-(((3aR,5s,6aS)-2-(benzo[d][1,3]dioxol-5-ylmethyl)octahydrocyclopenta[c]pyrrol-5-yl)amino)pyridazin-3-yl)phenyl)acetamide], the remaining activity at 30 µM under setting [1] was determined as 3%. Where the note is “M4/Gqi5/CHO-K1 cells”, the half-maximal inhibitory concentration (IC50) was 0.19 nM.

`CCNC(=O)c1ccccc1-c1ccc(N[C@H]2C[C@@H]3CN(CC4CCOCC4)C[C@@H]3C2)nn1` [Compound A58, N-ethyl-2-(6-(((3aR,5s,6aS)-2-((tetrahydro-2H-pyran-4-yl)methyl)octahydrocyclopenta[c]pyrrol-5-yl)amino)pyridazin-3-yl)benzamide]: the remaining activity at 30 µM under setting [1] turned out to be 6%. Moreover, the IC50 (M4/Gqi5/CHO-K1 cells) stood at 200 nM.

Consider `CC1(O)CN(C(=O)c2ccc(-c3ccc(N[C@H]4C[C@@H]5CN(CC6CCOCC6)C[C@@H]5C4)nn3)cc2)C1` [Compound A23, (3-hydroxy-3-methylazetidin-1-yl)(4-(6-(((3aR,5s,6aS)-2-((tetrahydro-2H-pyran-4-yl)methyl)octahydrocyclopenta[c]pyrrol-5-yl)amino)pyridazin-3-yl)phenyl)methanone], for which, under setting [1], the remaining activity at 30 µM came to 3%. Moreover, for the setting “M4/Gqi5/CHO-K1 cells”, the IC50 was found to be 15 nM.

As to `[2H]C([2H])([C@@H]1CCCCO1)N1C[C@H]2C[C@H](Nc3ccc(-c4cc(F)cc(C(=O)NC)c4)nn3)C[C@H]2C1` [Compound A86, 3-fluoro-N-methyl-5-(6-(((3aR,5s,6aS)-2-(((S)-tetrahydro-2H-pyran-2-yl)methyl-d2)octahydrocyclopenta[c]pyrrol-5-yl)amino)pyridazin-3-yl)benzamide], the remaining activity at 30 µM under setting [1] was 4%. In addition, where the note is “M4/Gqi5/CHO-K1 cells”, the IC50 was 2.7 nM.

Take `O=C(NC1CC(F)(F)C1)c1cc(F)c(F)c(-c2ccc(N[C@H]3C[C@@H]4CN(CC5CCOCC5)C[C@@H]4C3)nn2)c1` [Compound A19, N-(3,3-difluorocyclobutyl)-3,4-difluoro-5-(6-(((3aR,5s,6aS)-2-((tetrahydro-2H-pyran-4-yl)methyl)octahydrocyclopenta[c]pyrrol-5-yl)amino)pyridazin-3-yl)benzamide]: the remaining activity at 30 µM under setting [1] came to 4%. For the same molecule, the IC50 (M4/Gqi5/CHO-K1 cells) was 82 nM.

The record behind these values is patent US20240228468A1, “N-(6-((OCTAHYDROCYCLOPENTA[C]PYRROL-5-YI)AMINO)PYRIDAZIN-3-YL)PHENYL)CARBOXAMIDE AND (6- ((OCTAHYDROCYCLOPENTA[C]PYRROL-5-YL)AMINO)PYRIDAZIN-3-YL)BENZAMIDE DERIVATIVES AS MACHR M4 ANTAGONISTS FOR THE TREATMENT OF NEURODEGENERATIVE DISORDERS” (Vanderbilt University, priority 2021, published 2024).
